A short description of series [1]: Particle size by Malvern Mastersizer X / light microscope after jet milling or spray drying. In kind it is physicochemical. The procedure:
Approximately 1 g sample was passed through the jet mill, once, and approximately 2 g sample were passed through the jet mill twice. […] The resulting solution was sonicated for 3 minutes and appeared fully dispersed. The dispersed solutions were tested on a Malvern Mastersizer X with a small volume sampler (SVS) attachment. One sample of dispersed material was tested 5 times. The median particle size or D (v, 0.5) of unmilled material was 52.56 μm and the % RSD (relative standard deviation) was 7.61 for the 5 values. The D (v, 0.5) for a single pass through the jet mill was 3.90 μm and the % RSD was 1.27, and the D (v, 0.5) from a double pass through the jet mill 3.25 μm and the % RSD was 3.10.
The solution was spray-dried with a B-191 Mini Spray-Drier (Buchi, Flawil, Switzerland) with an inlet temperature of 55° C., outlet temperature of 40° C., at 100% aspirator, at 10% pump, nitrogen flow at 40 mbar and spray flow at 600 units. The spray-dried product was suspended in hexane and Span85 surfactant added to reduce agglomeration. The dispersions were sonicated with cooling for 3-5 minutes for complete dispersion and the dispersed solutions tested on a Malvern Mastersizer X with a Small Volume Sampler (SVS) attachment. […] Visual examination by light microscope of the dispersions of each batch confirmed that spray drying produced small respirable size particles. The mean particle size was 2.4 μm and 2.0 μm for each batch, respectively.

Series [2] can be described thus: Physicochemical testing of DHEA-S dihydrate before and after micronization. The following applies: for Water (% w/w): Karl Fischer. The procedure: Surface area is determined using five point BET analyses are performed with nitrogen as the adsorbing gas (P/Po=0.05 to 0.30) using a Micromeritics TriStar surface area analyzer. Particle size distributions are measured by laser diffraction using a Micromeritics Saturn Digisizer where the particles are suspended in mineral oil with sodium dioctyl sodium sulfosuccinate as a dispersing agent. Drug substance water content is measured by Karl Fischer titration (Schott Titroline KF). Pure water is used as the standard and all relative standard deviations for triplicates are less than 1%. Powder is added directly to the titration media.

Series [3] in a line: Solid-state stability neat and with lactose at 50° C. (DHEA formed, HPLC). Format: physicochemical. An excerpt: These conditions were used to stress the formulation in order to predict its long-term stability results. […] The primary degradant is DHEA. […] The materials on accelerated storage become more cohesive with time as evidenced by clumping during sample weighing for chemical analysis. […] This is a considerable disadvantage since lactose is the most commonly used inhalation excipient for dry powder formulations. Continuing with the virtually anhydrous form would mean limiting formulations to neat powder or undertaking more comprehensive safety studies to use a novel excipient.

Another series has as its system Intracellular adenosine. The series is described as follows: In vivo effect on adenosine levels in rat tissues. The procedure: Folinic acid (50 mg/kg) was administered intraperitoneally once daily for fourteen days. […] Hearts were removed from animals and flash frozen in liquid nitrogen with 10 s of death. Liver and lungs were removed en bloc and flash frozen with 30 s of death. Brain tissue was subsequently dissected.

The subject of the next series is HT-29 SF cells. The series is described as follows: DHEA effect on cell cycle, flow cytometry. In kind it is cell-based, human. The conditions noted are these: 25, 50, 200 μM; 24-72 hours. The procedure: Cells were plated at 10^5/60-mm dish in duplicate. […] Cultures were trypsinized following 0, 24, 48, or 74 hours and fixed and stained using a modification of a procedure of Bauer et al., Cancer Res. 46, 3173-3178 (1986). Briefly, cells were collected by centrifugation and resuspended in cold phosphate-buffered saline. Cells were fixed in 70% ethanol, washed, and resuspended in phosphate-buffered saline.
After 24, 48, and 72 hours, cells were harvested, fixed in ethanol, and stained with propidium iodide, and the DNA content/cell was determined by flow cytometric analysis. The percentage of cells in G1, S, and G2M phases was calculated using the Cellfit cell cycle analysis program. S phase is marked by a quadrangle for clarity. Representative histograms from duplicate determinations are shown. The experiment was repeated three times.

For series [4] the following is noted: cited from earlier work.
Series [5] can be described thus: Short-term solution stability of DHEA-S formulation. The following applies: for Appearance on storage: 10 mg/mL in 0.12% NaCl. Format: physicochemical. The method, then:
Aliquots of this solution are filled into clear glass vials and stored at RT (24-26° C.) and at 40° C. The samples are checked daily for DHEA-S content, DHEA content, and appearance. For each time point, duplicate samples are withdrawn and diluted from each vial. […] The study is stopped on day three. […] The solution should easily be stable for the day of reconstitution in a clinical trial. The following section describes the aerosol properties of this formulation.

Series [6] has as its system rat peritoneal mast cells. Put plainly: Mast cell degranulation (histamine secretion) after compound 48/80. Format: cell-based. An excerpt:
Leukotrienes are synthesized within—although not exclusively by the mast cell (Gilchrist, M., McCauley, S.D., & Befus, A. D. (2004) Expression, localization, and regulation of NOS in human mast cell lines: effects on leukotriene production. Blood 104, 462-469.). We determined whether DHEA-sulfate would reduce mast cell degranulation after stimulation with compound 48/80 in rat peritoneal mast cells. Mast cell degranulation was quantified by measurement of histamine, another substance contained within the secretory granules of mast cells. The simple measurement of released histamine is used as a convenient surrogate marker for the release of leukotrienes.
Freshly isolated rat peritoneal mast cells (2×10^5 cells) were pre-incubated for 5 min at 37° C. in a Balanced Salt Solution containing 150 mM NaCl (pH 7.4), 2.7 mM KCl, 0.9 mM CaCl2, 4 mM Na2HPO4, 2.7 mM KH2PO4, 1.75 mg/ml BSA and 0.1 μg/ml compound 48/80. Thereafter, DHEAS or water (control) are added and the mixture is incubated for 2 min at 37° C.
Following incubation, the mixture is cooled to 4° C. then centrifuged at 4500 rpm for 5 min. […]
The amount of secreted histamine is quantified by measuring the fluorescence intensity at λex=360 nm and λem=450 nm using a spectrofluorimeter (GeminiXS, Molecular Devices). The results are expressed as a percent inhibition of control histamine secretion.

A short description of series [7]: Solubility of DHEA-S as a function of NaCl and temperature. Format: physicochemical. The following applies: 20 mM Na^+; Ksp 1316 mM^2; 15° C. The source says: Inhalation of pure water can produce a cough stimulus. […] The temperature effect is weaker at high NaCl concentrations.

Consider seven compounds from patent publication US20090317476A1, “COMBINATION OF DEHYDROEPIANDROSTERONE OR DEHYDROEPIANDROSTERONE-SULFATE WITH A LEUKOTRIENE RECEPTOR ANTAGONIST FOR TREATMENT OF ASTHMA OR CHRONIC OBSTRUCTIVE PULMONARY DISEASE” (priority 2003, published 2009).

Structures are written as SMILES. Values joined by “and” are separate entries in the source; they are usually repeats but may differ in a detail not shown here. Equal entries are not always repeated.

Regarding `C[C@]12CC[C@H](OS(=O)(=O)[O-])CC1=CC[C@@H]1[C@@H]2CC[C@]2(C)C(=O)CC[C@@H]12.[Na+]` [Spray-Dried Drug Product], in series [1] (two batches of spray dried material, Malvern Mastersizer X, listed as spray-dried product), the mean particle sizes was 5.07±0.70 μm and 6.66±0.91 μm.

In the case of `C[C@]12CC[C@H](OS(=O)(=O)[O-])CC1=CC[C@@H]1[C@@H]2CC[C@]2(C)C(=O)CC[C@@H]12.O.O.[Na+]` [DHEA-S•dihydrate], the “Particle size (D50%)” value in [2] (Bulk) came to 31 microns; in series [2] (Micronized), 3.7 microns. The results for the “Water (% w/w)” value in series [2] (Bulk) and in series [2] (Micronized) were 8.5 % w/w and 8.4 % w/w, respectively. For the same compound, the “Surface area (m^2/g)” value in series [2] (Micronized, five point BET) is 4.9 m^2/g. The “Percent DHEA formed” value in series [3] (DHEA-S dihydrate, 50° C., 1 week) is reported as 0.216%; in series [3] (DHEA-S dihydrate, 50° C., 3 weeks), 0.317%; in series [3] (DHEA-S dihydrate, 50° C., 4 weeks) it was 0.374%; in [3] (dihydrate, Control, neat, sealed, 25° C., 4 weeks) it was 0.218%; in series [3] (dihydrate, Control, neat, sealed, 25° C., Time (Weeks)), 0.213%. Moreover, the “water content, starting value” in series [3] (before storage) was determined as 8.8%. Also, the “water content after accelerated storage” value in series [3] (one week at 50° C.) is 8.66%.

As for `Nc1nc(=O)c2c([nH]1)NCC(CNc1ccc(C(=O)N[C@@H](CCC(=O)O)C(=O)O)cc1)N2C=O` (mixture of isomers) [Folinic Acid, Folinic acid], in the series with Intracellular adenosine (all organs studied), the “Effect on adenosine levels, administered alone” value is “increase in adenosine levels”. The “Effect of coadministration of folinic acid on steroid-mediated adenosine depletion” value in the series on Intracellular adenosine (with DHEA or methyltestosterone) is “completely abrogated steroid-mediated adenosine depletion”.

For `C[C@]12CC[C@H](O)CC1=CC[C@@H]1[C@@H]2CC[C@]2(C)C(=O)CC[C@@H]12` [DHEA, 3β-hydroxyandrost-5-en-17-one], the “Effect on cell cycle distribution” value with HT-29 SF cells was “G1 block”.

Turning to `COc1cc(C(=O)NS(=O)(=O)c2ccccc2C)ccc1Cc1cn(C)c2ccc(NC(=O)OC3CCCC3)cc12` [Zafirlukast, 4(5-cyclopentyloxy-carbonylamino-1-methyl-indol-3ylmethyl)-3methoxy-N-o-tolylsulfonylbenzamide], in series [4], the Solubility in acetone entry is “freely soluble”, the Solubility in dimethylsulfoxide entry is “freely soluble”, the Solubility in methanol entry is “slightly soluble” and the Solubility in tetrahydrofuran result is listed as “freely soluble”. In addition, in series [4], the Solubility in water entry is recorded as “practically insoluble”.

Regarding `C[C@]12CC[C@H](OS(=O)(=O)[O-])CC1=CC[C@@H]1[C@@H]2CC[C@]2(C)C(=O)CC[C@@H]12.[Na+]` [Anhydrous DHEA-S], the “D (v, 0.5)” value in [1] (double pass through the jet mill) was found to be 3.25 μm; in [1] (single pass through the jet mill), 3.90 μm. In addition, the “median particle size or D (v, 0.5)” value in series [1] (unmilled material) is listed as 52.56 μm.

As to `C[C@]12CC[C@H](OS(=O)(=O)[O-])CC1=CC[C@@H]1[C@@H]2CC[C@]2(C)C(=O)CC[C@@H]12.[Na+]` [DHEA-S, sodium dehydroepiandrostenone sulfate], in series [5] (7.5 mg/mL of DHEA-S in 0.12% NaCl, RT), the “Stability of nebulizer formulation” value was “stable for at least one day at RT”. In series [5] (40° C.), the Appearance on storage entry is recorded as “became cloudy after two days of storage”. The Appearance on storage entry in [5] (RT (24-26° C.)) is “slight precipitate is observed on the third day”. Also, in series [6] (at 0.1 uM, compound 48/80 stimulated), the “maximal effect, percent inhibition of control histamine secretion” value worked out at 69.9%. In series [6] (at 10^-4 M), the “solubility under the assay conditions” value is “highly limited”. Moreover, in [7], the “calculated DHEA-S solution concentration” value is reported as 10.7 mg/mL and the “calculated DHEA-S^− solution concentration” value was 27.5 mM.
